Series [1] relates to HIV-1 NL4-3. The format is cell-based. To be noted: for luciferase activities increased compared to control cells containing no SEVI: 50 μg/ml peptide; for effect on HIV-1 infection (luciferase activities relative to no peptide): peptides 5 mg/ml shaken 20 h 37 °C, CEMX174 5.25 M7, 30 pg p24 HIV-1 NL4-3, 20 hours. As for the experimental part:
To analyze the effect of synthesized SEVI peptides on HIV infection, samples were resuspended in FBS free DMEM to yield a stock solution of 5 mg/ml and shacked for 20 h at 37° C. at 1400 rpm (rotations per minute) resulting in a turbid solution.
All peptides indicated in FIG. 7B were dissolved and incubated under the same conditions. […] In the presence of 50 μg/ml peptide, luciferase activities were increased about 30 fold compared to those from control cells containing no SEVI (FIG. 7A).
FIG. 7. Several synthetic PAP fragments stimulate HIV-1 infection. A) Lyophilized peptides were resuspended in DMEM without FBS and incubated for 20 h at 37° C. at 1,400 rpm using a thermo mixer (Eppendorf). […] After 20 h virus infection was detected using the Luciferase assay reagent (Promega). […] B) Shown are the peptide sequences analyzed.

The subject of series [2] is HIV-1 NL4-3. The series can be described thus: HIV-1 infection rate of CEMX174 5.25 M7 cells (GFP UV microscopy and luciferase). The format is cell-based. The settings on record: CEMX174 5.25 M7, 0.3 ng p24, 2 days. As for the experimental part: The rate of virus infection was detected after 2 days by performing first UV microscopy (FIG. 10A) and thereafter by measuring luciferase activities of cell lysates of the same samples (FIG. 10B). […] After infection of control samples containing no peptide, 2.6% of the cells expressed GFP corresponding to luciferase activities of 44,457 RLU/s (FIG. 10). In the presence of 2 μg/ml SEVI the average infection rates were nearly doubled to 4.6% (66,327 RLU/s). At the highest concentration of 50 μg/ml more than 99% of the cells became infected by HIV-1. Median luciferase activities in those samples were 1,701,156 RLU/s, corresponding to a 38 fold increase of infection (1,701,156 RLU/s divided by 44,457 RLU/s of control cells).
FIG. 10. […] The rate of virus infection was detected after 2 days by performing UV microscopy (A) or by measuring luciferase activity of cellular lysates (B). RLU/s: relative light units per second.

In series [3] the test system is NL4-3 V3 recombinant viruses and molecular HIV-1 clones. To be noted: for infection more efficient than control cells without peptide: 0.4 μg/ml SEVI.
The subject of series [4] is HIV-1 NL4-3. The series can be described thus: HIV-1 replication in PBMC after low dose infection (p24 antigen ELISA). The settings on record: 2 μg/ml SEVI. Format: cell-based.
A further series has as its system HIV-1. The series can be described thus: Preincubation of virus stock with SEVI and 50-fold dilution into cell culture. The format is cell-based. To be noted: diluted 50-fold. As for the experimental part:
SEVI could bind to viral particles and increase their infectivity, or enhance the susceptibility of target cells to HIV-1 infection. To distinguish between these possibilities, we preincubated the virus stock with various concentrations of fibrilar PAP(248-286) for 5 min in a small volume and subsequently added the virus/SEVI mixture to the cell culture, thereby diluting it 50-fold. For comparison, SEVI was directly added to the cell culture and subsequently infected with the same viral dose. […] In relation to the final peptide concentration in the infected culture, viral infectivity was enhanced by 50-fold (FIG. 17A, right).
(§1) FIG. 17. SEVI interacts with the HIV-1 particle and enhances its binding to the cell. A) Interaction of SEVI with HIV-1. SEVI was either preincubated with the virus stock in a small volume and subsequently added to the cells (□) or SEVI and the HIV-1 stocks were added separately to the cells (▪). The SEVI concentrations during incubation with the virus stocks are shown in the left panel and the concentrations relating to the total cell culture in the right panels. B) SEVI enhances binding of wildtype and Env-defective viral particles to the cells. u, uninfected cells. Data represent average values±s.d. (n=3).

Another series has as its system HIV-1 particles. The series can be described thus: Binding of viral particles to TZM-bl cells (cell-associated p24 ELISA). Format: cell-based. To be noted: 3 hs. The method, then:
To further assess how SEVI might enhance HIV-1 infection we incubated TZM-bl cells for 3 hs with viral particles in the presence or absence of fibrilar PAP(248-286). Thereafter, unbound virus was removed by extensive washing and the amount of cell-associated p24 antigen was determined by ELISA. SEVI increased binding of HIV-1 to the target cells up to 8-fold in a dose-dependent manner (FIG. 17B, left).
as §1

The next series relates to HIV-2 ROD10. Format: cell-based.
A further series concerns SIVmac239. Format: cell-based, SIV. To be noted: TZM-bl.
For the next series, the system named is SIVagm-tan 1. The format is cell-based, SIV. The settings on record: TZM-bl.
Another series has as its system SIVcpz-tan 1. The format is cell-based, SIV. To be noted: CEMX174 5.25 M7 cells.
The subject of series [5] is HIV-1 NL4-3 (X4) and HIV-1 NL4-3 YU-2 (R5). The series can be described thus: Infection of TZM-bl cells with subinfectious virus doses (Gal Screen). The format is cell-based. To be noted: 2 μg/ml SEVI or more, 0.1 and 0.6 pg p24 of X4 and R5 tropic HIV, 3 days.
The next series concerns TZM-bl cells. The series can be described thus: MTT cytotoxicity assay. Format: cell-based. To be noted: 3 days, high concentrations of SEVI. The method, then: The day after medium was replaced by 90 μl of fresh medium and SEVI [fibrilar […]] dilutions were added to a final volume of 100 μl. After 3 days 10 μl of a 5 mg/ml MTT (Sigma; # M2128) solution was added and cells were incubated for 4 h at 37° C. In living cells mitochondrial dehydrogenases […] the yellow MTT salt to blue formazan crystals (Schiff et al.; 1985). After dissolving the crystals in 1:1 Ethanol/DMSO, samples containing living cells appear blue whereas samples from dead cells are clear. Optical density (OD) was measured at 560/650 nm using a photometer (Molecular Devices).
FIG. 9. SEVI has no effect in cell viability or endogenous LTR activity. […] After 3 days 10 μl of a 5 mg/ml MTT solution was added and cells were incubated for 4 h at 37° C. Thereafter formazan crystals were dissolved in 1:1 Ethanol/DMSO and OD was measured at 560/650 nm. […] B) Endogenous LTR activity: After 3 days incubation with peptides endogenous LTR activity was measured using the Gal Screen Kit. Shown are median β-galactosidase activities±SD derived from 6 samples. RLU/s: relative light units per second.

The results in this text go back to US8299031B2, “Human semen enhancer of viral infection peptides (SEVI) and their use” (Viro Pharmaceuticals GmbH & Co. KG, priority 2006, dated 2012).

Like-named read-outs stand apart in the source and are kept apart here. Ends that are not written are not given here.

Take “KEKSRLQGGVLVNEILNHMKRATQIPSYKKLIMY (Synthetic fragment of the PAP protein) [PAP(253-286)]”: in the series with HIV-1 NL4-3 [1], the “luciferase activities increased compared to control cells containing no SEVI” value was “about 30 fold” and the “effect on HIV-1 infection (luciferase activities relative to no peptide)” value was “dose dependently enhanced HIV-1 infection”. In the series on HIV-1 NL4-3 [2], the “effect on NL4-3 infection” value was “dose dependently promoted NL4-3 infection”. The “infection more efficient than control cells without peptide” value in series [3] (93br025-9) is 1.9 fold. Besides, in series [3] (HIV-1 LAI), the “infection more efficient than control cells without peptide” value worked out at 2.7 fold. Also, the “maximum infectivity compared to infected controls without peptide” value in series [3] (higher concentrations, P51-S) is given as 3,045%.
For “GIHKQKEKSRLQGGVLVNEILNHMKRATQIPSYKKLIMY (Synthetic fragment of the PAP protein) [PAP(248-286)]”, in the series on HIV-1 NL4-3 [1], the “luciferase activities increased compared to control cells containing no SEVI” value is “about 30 fold” and the “effect on HIV-1 infection (luciferase activities relative to no peptide)” value is listed as “dose dependently enhanced HIV-1 infection”. Besides, the “effect on NL4-3 infection” value in the series with HIV-1 NL4-3 [2] is given as “dose dependently promoted NL4-3 infection”. In the series with HIV-1 NL4-3 [4] (PBMC infected with 1.2 and 0.12 pg), the “virus replication (p24 antigen ELISA)” value is “virus only replicated in samples containing SEVI”. In addition, the “virus replication (p24 antigen ELISA)” value with HIV-1 NL4-3 [4] (PBMC infected with 120 and 12 pg p24 antigen) was “replicated with faster kinetics and to higher levels than in control cells without peptide”. Further, the “viral infectivity enhanced in relation to the final peptide concentration in the infected culture” value with HIV-1 (5 min preincubation with virus stock) came out at 50 fold. The “effect of diluting the HIV-1/SEVI mixture after preincubation” value in the series on HIV-1 (5 min preincubation) is recorded as “did not at all reduce the magnitude of SEVI-mediated infectivity enhancement”. For the same sequence, the “binding of HIV-1 particles lacking Env” value in the series on HIV-1 particles was “enhanced binding of HIV-1 particles lacking Env”. Besides, the “increase of binding of HIV-1 to the target cells (cell-associated p24)” value in the series on HIV-1 particles (wildtype HIV-1, dose-dependent) was “up to 8 fold”. In the series with HIV-2 ROD10 (50 μg/ml SEVI, TZM-bl infected with 2 μl of HIV-2), the “increase of viral infection” value is “two orders of magnitude”. The “effect on infection rates of HIV-2” value with HIV-2 ROD10 (TZM-bl) was “dose dependently enhanced infection rates”. In the series with SIVmac239, the “effect on SIVmac infection” value is listed as “favoured”. In addition, the “effect on SIVagm infection” value in the series on SIVagm-tan 1 is recorded as “favoured”. Besides, in the series on SIVcpz-tan 1, the “effect on SIVcpz infection” value is given as “favoured”.
Regarding “KQKEKSRLQGGVLVNEILNHMKRATQIPSYKKLIMY (Synthetic fragment of the PAP protein) [PAP(251-286)]”, in the series on HIV-1 NL4-3 [1], the “luciferase activities increased compared to control cells containing no SEVI” value is reported as “about 30 fold” and the “effect on HIV-1 infection (luciferase activities relative to no peptide)” value is recorded as “dose dependently enhanced HIV-1 infection”. The “effect on NL4-3 infection” value in the series on HIV-1 NL4-3 [2] is on record as “dose dependently promoted NL4-3 infection”. The “detection of infection (β-galactosidase activities)” value in [5] is “readily detectable”.
Turning to “QKEKSRLQGGVLVNEILNHMKRATQIPSYKKLIMY (Synthetic fragment of the PAP protein) [PAP(252-286)]”, in the series on HIV-1 NL4-3 [1], the “luciferase activities increased compared to control cells containing no SEVI” value is “about 30 fold” and the “effect on HIV-1 infection (luciferase activities relative to no peptide)” value is reported as “dose dependently enhanced HIV-1 infection”.
Turning to “HKQKEKSRLQGGVLVNEILNHMKRATQIPSYKKLIMY [PAP(250-286)]”, the “cell viability (MTT)” value with TZM-bl cells is “not affected”.
